The target in one test is SUMO-activating enzyme (Homo sapiens, UniProt Q9UBT2). The test is described as follows: inhibitors of in vitro SUMOylation cascade, primary screen, biochemical, HTRF, uHTS (AID 2006). The format is protein-complex assay.
Test [1] concerns the target T1, Sentrin-specific protease 6 (Homo sapiens, UniProt Q9GZR1).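 Also: Luminescence-based dose-response confirmatory assay of SENP6 inhibition, following up an ultra-high-throughput screen.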
T1 sequence (Q9GZR1 whole entry): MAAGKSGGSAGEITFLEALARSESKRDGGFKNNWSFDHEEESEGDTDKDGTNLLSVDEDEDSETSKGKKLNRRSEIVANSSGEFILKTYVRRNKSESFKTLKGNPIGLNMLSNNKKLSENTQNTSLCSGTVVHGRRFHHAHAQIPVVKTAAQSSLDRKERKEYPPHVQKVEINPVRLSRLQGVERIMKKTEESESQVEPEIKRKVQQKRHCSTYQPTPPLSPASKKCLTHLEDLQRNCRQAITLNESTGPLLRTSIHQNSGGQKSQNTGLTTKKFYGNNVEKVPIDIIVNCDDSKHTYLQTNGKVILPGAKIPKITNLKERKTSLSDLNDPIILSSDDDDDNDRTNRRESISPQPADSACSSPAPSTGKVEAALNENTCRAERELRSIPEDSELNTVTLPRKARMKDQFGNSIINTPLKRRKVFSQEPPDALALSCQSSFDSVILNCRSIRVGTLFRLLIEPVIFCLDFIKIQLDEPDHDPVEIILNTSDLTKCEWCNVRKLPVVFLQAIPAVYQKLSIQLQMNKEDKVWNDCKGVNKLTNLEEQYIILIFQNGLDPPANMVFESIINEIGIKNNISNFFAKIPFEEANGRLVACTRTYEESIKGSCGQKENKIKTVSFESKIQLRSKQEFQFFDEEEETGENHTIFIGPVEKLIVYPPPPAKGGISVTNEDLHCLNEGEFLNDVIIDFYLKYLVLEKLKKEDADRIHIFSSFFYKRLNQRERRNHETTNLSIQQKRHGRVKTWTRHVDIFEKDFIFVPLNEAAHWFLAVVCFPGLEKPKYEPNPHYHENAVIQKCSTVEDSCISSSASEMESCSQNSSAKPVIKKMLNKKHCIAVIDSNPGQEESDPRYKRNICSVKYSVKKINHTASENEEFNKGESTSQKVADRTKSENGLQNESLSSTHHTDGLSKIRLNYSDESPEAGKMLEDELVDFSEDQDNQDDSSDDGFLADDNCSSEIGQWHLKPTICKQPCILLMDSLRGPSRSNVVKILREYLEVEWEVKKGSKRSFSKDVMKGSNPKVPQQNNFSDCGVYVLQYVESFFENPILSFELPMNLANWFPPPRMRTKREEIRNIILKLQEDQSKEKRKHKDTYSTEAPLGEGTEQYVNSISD
It is filed as functional.

Test [2] addresses T2, Sentrin-specific protease 8 (Homo sapiens, UniProt Q96LD8).
T2 sequence (Q96LD8 whole entry): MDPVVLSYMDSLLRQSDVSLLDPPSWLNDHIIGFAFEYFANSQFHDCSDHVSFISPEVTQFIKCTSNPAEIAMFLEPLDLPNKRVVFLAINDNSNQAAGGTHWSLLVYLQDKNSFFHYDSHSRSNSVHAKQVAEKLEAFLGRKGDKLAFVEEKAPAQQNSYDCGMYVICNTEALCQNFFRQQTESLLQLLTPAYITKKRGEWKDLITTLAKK
It is filed as functional.

Another test deals with Genome polyprotein (dengue virus type 2, UniProt P29990). The test is described as follows: Dengue-2 NS5 methyltransferase inhibitors, primary screen, biochemical, confirmation dose response (AID 588689). It is filed as functional.
Test [3] in a line: THP-1 cell cytotoxicity, dose response, cytotoxicity control for Vif-APOBEC3G degradation inhibitor project, THP-1 cells (AID 1117359). It is filed as functional. The following applies: Human immunodeficiency virus 1, THP-1.
In test [4] the target is Serine/threonine-protein phosphatase PP1-alpha catalytic subunit (Homo sapiens, UniProt P62136). Briefly: PP1 phosphatase inhibitors, dose response, biochemical, fluorescence (AID 2403).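 Also: phosphatase turnover of OMFP into fluorescent 3-O-methylfluorescein.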
Chain of Serine/threonine-protein phosphatase PP1-alpha catalytic subunit (P62136 whole entry): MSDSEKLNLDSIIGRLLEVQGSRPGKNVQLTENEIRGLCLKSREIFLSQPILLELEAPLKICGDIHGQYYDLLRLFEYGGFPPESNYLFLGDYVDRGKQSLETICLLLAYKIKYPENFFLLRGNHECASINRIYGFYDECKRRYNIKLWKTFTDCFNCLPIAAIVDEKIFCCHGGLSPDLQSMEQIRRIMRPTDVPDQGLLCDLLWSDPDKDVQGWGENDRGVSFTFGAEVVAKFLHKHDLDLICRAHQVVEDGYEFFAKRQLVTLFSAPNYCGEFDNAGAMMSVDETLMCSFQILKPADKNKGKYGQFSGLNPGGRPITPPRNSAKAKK
The target of test [5] is T2, Sentrin-specific protease 8. The format is functional. The source holds these as a separate data set.
The target of test [6] is Dual specificity protein kinase CLK2 (Homo sapiens, UniProt P49760). It is filed as functional.
Chain of Dual specificity protein kinase CLK2 (P49760 whole entry): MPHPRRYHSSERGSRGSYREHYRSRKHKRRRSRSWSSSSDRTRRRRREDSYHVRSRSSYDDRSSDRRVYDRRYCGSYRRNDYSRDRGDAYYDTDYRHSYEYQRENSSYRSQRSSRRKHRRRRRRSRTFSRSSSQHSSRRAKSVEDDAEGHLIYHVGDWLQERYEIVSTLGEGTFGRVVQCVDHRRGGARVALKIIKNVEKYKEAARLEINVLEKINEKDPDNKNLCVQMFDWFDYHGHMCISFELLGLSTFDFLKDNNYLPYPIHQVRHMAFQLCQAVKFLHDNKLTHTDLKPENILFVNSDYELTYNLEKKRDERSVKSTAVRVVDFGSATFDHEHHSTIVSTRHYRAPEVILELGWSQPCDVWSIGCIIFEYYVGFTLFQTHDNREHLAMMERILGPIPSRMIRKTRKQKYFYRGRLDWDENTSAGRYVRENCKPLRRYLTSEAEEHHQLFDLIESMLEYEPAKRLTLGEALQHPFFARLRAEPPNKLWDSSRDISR
For test [7], the target named is Tyrosine-protein kinase receptor TYRO3 (Homo sapiens, UniProt Q06418). The format is functional.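 Also: TYRO3 value obtained as one member of a kinome-wide profiling panel.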
Chain of Tyrosine-protein kinase receptor TYRO3 (Q06418 whole entry): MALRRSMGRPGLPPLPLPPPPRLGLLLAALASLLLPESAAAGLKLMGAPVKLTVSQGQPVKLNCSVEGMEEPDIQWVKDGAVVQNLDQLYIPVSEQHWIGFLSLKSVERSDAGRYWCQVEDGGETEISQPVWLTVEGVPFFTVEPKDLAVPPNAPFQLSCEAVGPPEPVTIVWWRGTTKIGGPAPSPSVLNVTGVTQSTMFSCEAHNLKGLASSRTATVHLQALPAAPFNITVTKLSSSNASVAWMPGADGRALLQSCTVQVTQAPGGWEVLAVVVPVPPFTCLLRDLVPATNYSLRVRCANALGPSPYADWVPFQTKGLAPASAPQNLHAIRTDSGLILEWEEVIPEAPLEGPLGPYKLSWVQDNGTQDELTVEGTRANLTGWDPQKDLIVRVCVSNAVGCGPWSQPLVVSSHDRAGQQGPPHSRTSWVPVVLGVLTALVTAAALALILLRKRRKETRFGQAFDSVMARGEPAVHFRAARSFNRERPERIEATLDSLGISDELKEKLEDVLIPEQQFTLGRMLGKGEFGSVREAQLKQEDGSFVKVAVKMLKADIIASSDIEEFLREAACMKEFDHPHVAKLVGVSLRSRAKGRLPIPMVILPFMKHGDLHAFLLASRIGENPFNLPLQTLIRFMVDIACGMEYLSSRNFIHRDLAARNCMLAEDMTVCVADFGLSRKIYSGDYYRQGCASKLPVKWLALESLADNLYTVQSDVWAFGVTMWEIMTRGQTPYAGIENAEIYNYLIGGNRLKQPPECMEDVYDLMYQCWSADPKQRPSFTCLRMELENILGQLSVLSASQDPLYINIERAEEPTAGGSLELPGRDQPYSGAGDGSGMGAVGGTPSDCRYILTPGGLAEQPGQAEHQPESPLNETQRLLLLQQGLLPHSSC
Test [8] addresses Mitogen-activated protein kinase 8 (Homo sapiens, UniProt P45983). It is filed as functional.
The target in test [9] is Serine/threonine-protein kinase PAK 4 (Homo sapiens, UniProt O96013). The format is functional.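 Also: value obtained within a kinome profiling panel in which PAK4 was one of the panel members.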
Test [10] concerns the target Serine/threonine-protein kinase TAO1 (Homo sapiens, UniProt Q7L7X3). It is filed as functional.
In test [11] the target is Tyrosine-protein kinase ABL1 (Homo sapiens, UniProt P00519). It is filed as functional.
For test [12], the target named is cAMP-dependent protein kinase catalytic subunit PRKX (Homo sapiens, UniProt P51817). The format is functional.
Test [13] deals with Platelet-derived growth factor receptor alpha (Homo sapiens, UniProt P16234). The test is described as follows: Navigating the Kinome. Panel member name: PDGFRA. It is filed as functional.
The target in a further test is Aurora kinase B (Homo sapiens, UniProt Q96GD4). The format is functional.
For test [14], the target named is Tyrosine-protein kinase Fyn (Homo sapiens, UniProt P06241). The format is functional.
The target in test [15] is Cyclin-dependent kinase 7 (Homo sapiens, UniProt P50613). The format is functional.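 Also: value comes from a kinome-wide kinase profiling panel in which CDK7 is one member.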
Chain of Cyclin-dependent kinase 7 (P50613 whole entry): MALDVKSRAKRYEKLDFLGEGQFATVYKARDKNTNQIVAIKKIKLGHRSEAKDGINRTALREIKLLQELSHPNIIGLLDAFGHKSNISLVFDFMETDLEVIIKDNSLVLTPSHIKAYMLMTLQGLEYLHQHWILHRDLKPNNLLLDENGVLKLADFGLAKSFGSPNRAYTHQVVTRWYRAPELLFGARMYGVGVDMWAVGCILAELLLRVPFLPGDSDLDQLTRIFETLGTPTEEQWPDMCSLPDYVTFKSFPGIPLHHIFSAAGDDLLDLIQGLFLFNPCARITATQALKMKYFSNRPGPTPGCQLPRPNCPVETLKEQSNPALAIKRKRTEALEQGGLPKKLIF
Test [16] addresses Cyclin-dependent kinase 9 (Homo sapiens, UniProt P50750). It is filed as functional.
For test [17], the target named is BDNF/NT-3 growth factors receptor (Homo sapiens, UniProt Q16620). The format is functional.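 Also: NTRK2 measured as one member of a broad kinome-wide kinase profiling panel.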
Chain of BDNF/NT-3 growth factors receptor (Q16620 whole entry): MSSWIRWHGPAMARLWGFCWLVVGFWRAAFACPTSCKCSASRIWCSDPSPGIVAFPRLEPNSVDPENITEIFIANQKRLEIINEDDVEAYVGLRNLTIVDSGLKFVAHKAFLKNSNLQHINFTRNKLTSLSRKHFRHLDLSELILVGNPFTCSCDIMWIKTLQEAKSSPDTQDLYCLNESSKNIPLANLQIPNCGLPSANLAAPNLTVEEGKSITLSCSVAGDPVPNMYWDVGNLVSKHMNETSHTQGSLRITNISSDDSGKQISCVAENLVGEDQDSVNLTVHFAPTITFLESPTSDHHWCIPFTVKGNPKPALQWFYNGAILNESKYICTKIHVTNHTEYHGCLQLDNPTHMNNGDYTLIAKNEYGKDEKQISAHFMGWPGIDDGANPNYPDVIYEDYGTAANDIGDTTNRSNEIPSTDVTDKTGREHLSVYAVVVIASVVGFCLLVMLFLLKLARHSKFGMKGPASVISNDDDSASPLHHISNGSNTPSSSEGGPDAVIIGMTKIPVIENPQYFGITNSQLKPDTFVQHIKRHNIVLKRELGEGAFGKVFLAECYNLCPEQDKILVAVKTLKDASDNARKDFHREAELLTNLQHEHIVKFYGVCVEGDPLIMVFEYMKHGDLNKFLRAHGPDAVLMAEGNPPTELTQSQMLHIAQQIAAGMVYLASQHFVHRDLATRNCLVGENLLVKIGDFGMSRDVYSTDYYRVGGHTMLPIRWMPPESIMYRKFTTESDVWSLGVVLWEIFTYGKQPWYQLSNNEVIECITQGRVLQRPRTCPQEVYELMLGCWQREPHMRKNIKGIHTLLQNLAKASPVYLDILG
Test [18] addresses Dual specificity protein kinase CLK4 (Homo sapiens, UniProt Q9HAZ1). The format is functional.
For test [19], the target named is Macrophage colony-stimulating factor 1 receptor (Homo sapiens, UniProt P07333). The format is functional.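 Also: value comes from the Navigating the Kinome screening panel, CSF1R member.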
The target of test [20] is Dual specificity tyrosine-phosphorylation-regulated kinase 1A (Homo sapiens, UniProt Q13627). The format is functional.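 Also: measured against DYRK1A as one member of a broad kinome profiling panel.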
Test [21] concerns the target Leukocyte tyrosine kinase receptor (Homo sapiens, UniProt P29376). Briefly: Navigating the Kinome. Panel member name: LTK. It is filed as functional.
The target of test [22] is Intestinal-type alkaline phosphatase (Homo sapiens, UniProt P09923). Briefly: activation of human intestinal alkaline phosphatase – biochemical, dose response (AID 488873). It is filed as functional.
The target in test [23] is Intestinal-type alkaline phosphatase (Mus musculus, UniProt P24822). The test is described as follows: mouse intestinal alkaline phosphatase activators, dose response, biochemical, luminescence, uHTS hits (AID 488783). The format is functional.

Active and inactive are the calls of the source.

Chain of Mitogen-activated protein kinase 8 (P45983 whole entry): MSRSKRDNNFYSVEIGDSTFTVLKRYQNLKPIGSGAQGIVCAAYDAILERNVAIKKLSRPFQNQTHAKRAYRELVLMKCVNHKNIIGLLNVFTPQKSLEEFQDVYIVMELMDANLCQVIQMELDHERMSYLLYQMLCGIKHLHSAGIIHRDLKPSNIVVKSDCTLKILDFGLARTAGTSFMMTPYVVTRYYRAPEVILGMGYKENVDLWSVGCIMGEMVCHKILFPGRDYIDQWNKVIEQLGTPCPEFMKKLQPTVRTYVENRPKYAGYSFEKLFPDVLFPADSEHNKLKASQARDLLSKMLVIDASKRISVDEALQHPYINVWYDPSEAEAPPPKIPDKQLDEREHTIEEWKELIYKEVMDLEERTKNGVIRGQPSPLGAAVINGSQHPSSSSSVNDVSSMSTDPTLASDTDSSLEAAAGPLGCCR
Chain of Serine/threonine-protein kinase TAO1 (Q7L7X3 whole entry): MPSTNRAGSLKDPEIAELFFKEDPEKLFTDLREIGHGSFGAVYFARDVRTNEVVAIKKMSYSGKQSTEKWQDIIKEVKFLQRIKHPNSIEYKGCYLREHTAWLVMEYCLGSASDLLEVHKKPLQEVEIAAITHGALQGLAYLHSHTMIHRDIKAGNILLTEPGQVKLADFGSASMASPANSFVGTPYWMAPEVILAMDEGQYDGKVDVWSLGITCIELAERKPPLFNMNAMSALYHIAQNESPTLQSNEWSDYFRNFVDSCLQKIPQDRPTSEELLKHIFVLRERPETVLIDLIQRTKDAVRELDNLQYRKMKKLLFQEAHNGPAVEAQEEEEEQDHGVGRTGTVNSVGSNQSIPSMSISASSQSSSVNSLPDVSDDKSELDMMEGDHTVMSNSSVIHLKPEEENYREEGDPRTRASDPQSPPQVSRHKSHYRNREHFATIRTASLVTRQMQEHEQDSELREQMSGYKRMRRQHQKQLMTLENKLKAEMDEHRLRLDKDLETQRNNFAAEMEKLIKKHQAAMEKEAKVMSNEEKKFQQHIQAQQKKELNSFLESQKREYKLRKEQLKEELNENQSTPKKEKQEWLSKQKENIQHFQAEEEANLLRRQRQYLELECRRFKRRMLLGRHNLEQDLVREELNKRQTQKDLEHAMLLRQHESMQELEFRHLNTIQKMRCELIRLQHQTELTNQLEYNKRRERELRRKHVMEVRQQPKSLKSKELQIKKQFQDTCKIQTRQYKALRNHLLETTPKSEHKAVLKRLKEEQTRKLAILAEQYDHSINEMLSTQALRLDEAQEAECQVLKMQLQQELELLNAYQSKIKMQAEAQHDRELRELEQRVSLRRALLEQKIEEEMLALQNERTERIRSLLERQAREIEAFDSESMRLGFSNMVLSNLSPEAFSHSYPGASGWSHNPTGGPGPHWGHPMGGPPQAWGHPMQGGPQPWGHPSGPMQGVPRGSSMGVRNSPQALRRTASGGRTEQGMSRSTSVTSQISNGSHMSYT
Chain of Dual specificity protein kinase CLK4 (Q9HAZ1 whole entry): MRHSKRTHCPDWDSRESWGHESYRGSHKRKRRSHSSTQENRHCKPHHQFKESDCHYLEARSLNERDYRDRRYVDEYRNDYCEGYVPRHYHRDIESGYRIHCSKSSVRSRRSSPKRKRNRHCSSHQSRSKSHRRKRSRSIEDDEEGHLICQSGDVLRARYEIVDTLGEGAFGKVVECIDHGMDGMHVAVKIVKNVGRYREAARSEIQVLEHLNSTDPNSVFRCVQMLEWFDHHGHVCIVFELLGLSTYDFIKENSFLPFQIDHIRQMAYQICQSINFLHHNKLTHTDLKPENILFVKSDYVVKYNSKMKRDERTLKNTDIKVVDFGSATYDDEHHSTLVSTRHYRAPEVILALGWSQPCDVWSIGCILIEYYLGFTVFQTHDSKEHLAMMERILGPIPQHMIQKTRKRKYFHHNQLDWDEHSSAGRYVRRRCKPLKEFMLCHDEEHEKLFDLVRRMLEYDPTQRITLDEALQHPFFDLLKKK

As a reminder, the IC50 is the concentration that gives 50% inhibition. For orientation: CC50 means the concentration that lowers cell viability or growth by half. Consider `CC(=O)N(C1=C(Cl)C(=O)c2ccccc2C1=O)c1ccc(C(=O)O)cc1`, for which the IC50 is 17.3 µM (active) on SUMO-activating enzyme, 4.08 µM (active) in [1], 5.99 µM (active) in test [2] and 5.89 µM (active) at Genome polyprotein. Further, in test [3], the CC50 was 32.4 µM (active).
Regarding `CC1(C)C=C2C(=NN(c3ccccc3)C(N)=C2C#N)CO1`, the results for the half-inhibitory concentration (IC50) in test [4] and in [5] were 55.8 µM (not active) and 0.0173 µM (active), respectively.
In general, Ki refers to a measure of affinity in units of concentration, obtained from inhibition or displacement. As to `Cc1ccc(-c2cc3nc(Br)cnc3[nH]2)cc1`, the Ki in [6] was > 3.98 µM (inactive); in test [7] it was > 3.16 µM (inactive); in [8], > 5.01 µM (inactive); in [9], > 5.01 µM (inactive); in [10], > 6.31 µM (inactive); in test [11], 0.794 µM (active). Further, the Ki is > 3.16 µM (inactive) in test [12]; > 2.51 µM (inactive) in [13]; 0.794 µM (active) on Aurora kinase B; > 6.31 µM (inactive) in test [14]; 0.158 µM (active) in test [15]; > 1.58 µM (inactive) in test [16]. In addition, the Ki in [17] is > 3.98 µM (inactive); in [18], 0.1 µM (active); in [19], > 2.51 µM (inactive); in test [20], > 2 µM (inactive); in test [21] it was > 2.51 µM (inactive).
The EC50 is the concentration at which the effect is half-maximal. As to `O=C1C=C(O)c2c(O)cc(O)c(O)c2C1=O`, the EC50 in [22] is > 100 µM (inactive); in test [23] it was 9.93 µM (active).

Source of the values: ChEMBL document CHEMBL1201862, “PubChem BioAssay data set” (2004).
